Laboratory results reported in patent US10458996B1, “Methods for determining clinical response to TNF-alpha and/or JAK inhibitors in subjects with inflammatory diseases” (Beth Israel Deaconess Medical Center, Inc., priority 2016, dated 2019).

Key:
[1] = test system: intestinal mucosal explants from patients with IBD; assay: Ex vivo infliximab treatment of intestinal mucosal explant cultures, cytokines in supernatant by multiplex ELISA; type: cell-based, human; conditions: for GM-CSF inhibition by ex vivo infliximab treatment, % patients / GM-CSF inhibition by ex vivo infliximab treatment, N patients / IFNγ inhibition by ex vivo infliximab treatment, % patients / IFNγ inhibition by ex vivo infliximab treatment, N patients / IL-1β inhibition by ex vivo infliximab treatment, % patients / IL-1β inhibition by ex vivo infliximab treatment, N patients / IL-2 inhibition by ex vivo infliximab treatment, % patients / IL-2 inhibition by ex vivo infliximab treatment, N patients / IL-4 inhibition by ex vivo infliximab treatment, % patients / IL-4 inhibition by ex vivo infliximab treatment, N patients / IL-5 inhibition by ex vivo infliximab treatment, N patients / IL-6 inhibition by ex vivo infliximab treatment, % patients / IL-6 inhibition by ex vivo infliximab treatment, N patients / IL-7 inhibition by ex vivo infliximab treatment, % patients / IL-7 inhibition by ex vivo infliximab treatment, N patients / IL-8 inhibition by ex vivo infliximab treatment, % patients / IL-8 inhibition by ex vivo infliximab treatment, N patients / IL-10 inhibition by ex vivo infliximab treatment, % patients / IL-10 inhibition by ex vivo infliximab treatment, N patients / IL-12p40 inhibition by ex vivo infliximab treatment, N patients / IL-12p70 inhibition by ex vivo infliximab treatment, % patients / IL-12p70 inhibition by ex vivo infliximab treatment, N patients / IL-13 inhibition by ex vivo infliximab treatment, N patients / IL-17A inhibition by ex vivo infliximab treatment, N patients / MCP-1 inhibition by ex vivo infliximab treatment, % patients / MCP-1 inhibition by ex vivo infliximab treatment, N patients / IL-5 inhibition by ex vivo infliximab treatment, % patients / IL-12p40 inhibition by ex vivo infliximab treatment, % patients / IL-13 inhibition by ex vivo infliximab treatment, % patients / IL-17A inhibition by ex vivo infliximab treatment, % patients: infliximab 0.5 mg/ml; for number of cytokines down-regulated in the ex vivo assay: mean±SEM; for ex vivo response rate / ex vivo response rate (patients): responder = down-regulation of >2 cytokines
Experimental: During a hospital visit for an endoscopic procedure that was part of their standard care, patients were asked by the study coordinator whether they were willing to participate in this research study and sign the informed consent approved by the Institution's Committee on Clinical Investigations. From each patient, four extra punch biopsies were taken from the macroscopically most diseased areas of the inflamed intestinal mucosa, put on ice and transferred to the lab within 30 minutes of their harvesting.
From each patient, intestinal mucosal biopsies were minced into several pieces and distributed in 8 wells of a 96-well plate in 250 μl of Dulbecco's Modified Eagle Medium (DMEM) supplemented with 10% FBS and antibiotic-antimycotic (Life Technologies, CA). Half of the cultures were treated with infliximab (REMICADE®; 0.5 mg/ml; Janssen Biotech, Inc, NJ) and the plate was incubated at 37° C. in a humidified chamber of 95% O2/5% CO2 for 18 hours. Culture supernatants were collected, filtered and stored at −80° C. […] Signal detection and analysis was performed by MAGPIX® (Luminex Corporation, TX).
Within each patient, differences in cytokine release between control and infliximab-treated cultures (n=4 per group) were assessed by the Mann-Whitney test. Cytokine changes in patients with CD (N=29) or UC (N=16) were expressed as mean±SEM and evaluated by unpaired t-test followed by Bonferroni correction for multiple comparisons. In rate or percentage comparisons a chi-square test was applied. The non-parametric Mann-Whitney test was chosen for the rest of two-group analyses. The STATView 2.0 software (SAS Institute) was used for all tests with the exception of the Receiver Operating Characteristic (ROC) analysis for which STATA13 was used.
The impact of anti-TNFα (infliximab) treatment was investigated in vitro using mucosal biopsy cultures derived from the most inflamed areas of the terminal ileum or colon of a total of 45 patients with IBD, 64% with CD and 36% with UC. At the time the biopsies were taken, 32 patients (71%) were receiving medications for their IBD and 16 of them were under an anti-TNFα regimen. The assay read-out consisted of a panel of 15 cytokines, chemokines and inflammatory mediators, and its design was based on previously reported biomarkers for CD and UC, on biomarkers that correlated with response to anti-TNFα treatment and on plausible TNF-alpha related biological mechanisms (Tracey et al., Rismo et al., Iskandar et al., Transl Res 159:313-325, 2012; Umehara et al., Hepatogastroenterology 53:879-882, 2006). For each patient and each cytokine, data were generated for the two conditions (plus/minus infliximab) using the median of 4 independent cultures.

[2] = test system: patients with UC; conditions: cited from earlier work
[3] = test system: patients with moderate-to-severe CD; conditions: week 24 of intervention; cited from earlier work
[4] = cited from earlier work
[5] = Clinical Response No (n = 17), 18 hours
[6] = Clinical Response No (n = 17), some values below detection limit or missing, 18 hours
[7] = Clinical Response Yes (n = 11), 18 hours
[8] = Clinical Response Yes (n = 11), some values below detection limit or missing, 18 hours
[9] = Mann-Whitney within each patient, 0.5 mg/ml, 18 hours
[10] = cohort 1, anti-TNFα naïve IBD patients
[11] = cohort 2, anti-TNFα exposed patients

infliximab
GM-CSF inhibition by ex vivo infliximab treatment, % patients [1, 5]: 5.9% | GM-CSF inhibition by ex vivo infliximab treatment, N patients [1, 5]: 1 | IFNγ inhibition by ex vivo infliximab treatment, % patients [1, 5]: 23.5% | IFNγ inhibition by ex vivo infliximab treatment, N patients [1, 5]: 4 | IL-1β inhibition by ex vivo infliximab treatment, % patients [1, 5]: 11.8% | IL-1β inhibition by ex vivo infliximab treatment, N patients [1, 5]: 2 | IL-2 inhibition by ex vivo infliximab treatment, % patients [1, 5]: 11.8% | IL-2 inhibition by ex vivo infliximab treatment, N patients [1, 5]: 2 | IL-4 inhibition by ex vivo infliximab treatment, % patients [1, 5]: 5.9% | IL-4 inhibition by ex vivo infliximab treatment, N patients [1, 5]: 1 | IL-5 inhibition by ex vivo infliximab treatment, N patients [1, 5]: 1 | IL-6 inhibition by ex vivo infliximab treatment, % patients [1, 5]: 5.9% | IL-6 inhibition by ex vivo infliximab treatment, N patients [1, 5]: 1 | IL-7 inhibition by ex vivo infliximab treatment, % patients [1, 5]: 0.0% | IL-7 inhibition by ex vivo infliximab treatment, N patients [1, 5]: 0 | IL-8 inhibition by ex vivo infliximab treatment, % patients [1, 5]: 5.9% | IL-8 inhibition by ex vivo infliximab treatment, N patients [1, 5]: 1 | IL-10 inhibition by ex vivo infliximab treatment, % patients [1, 5]: 11.8% | IL-10 inhibition by ex vivo infliximab treatment, N patients [1, 5]: 2 | IL-12p40 inhibition by ex vivo infliximab treatment, N patients [1, 5]: 3 | IL-12p70 inhibition by ex vivo infliximab treatment, % patients [1, 5]: 17.6% | IL-12p70 inhibition by ex vivo infliximab treatment, N patients [1, 5]: 3 | IL-13 inhibition by ex vivo infliximab treatment, N patients [1, 5]: 0 | IL-17A inhibition by ex vivo infliximab treatment, N patients [1, 5]: 0 | MCP-1 inhibition by ex vivo infliximab treatment, % patients [1, 5]: 5.9% | MCP-1 inhibition by ex vivo infliximab treatment, N patients [1, 5]: 1 | IL-5 inhibition by ex vivo infliximab treatment, % patients [1, 6]: 7.7% | IL-12p40 inhibition by ex vivo infliximab treatment, % patients [1, 6]: 20.0^∧ % | IL-13 inhibition by ex vivo infliximab treatment, % patients [1, 6]: 0.0^∧ % | IL-17A inhibition by ex vivo infliximab treatment, % patients [1, 6]: 0.0^∧ % | GM-CSF inhibition by ex vivo infliximab treatment, % patients [1, 7]: 9.1% | GM-CSF inhibition by ex vivo infliximab treatment, N patients [1, 7]: 1 | IFNγ inhibition by ex vivo infliximab treatment, % patients [1, 7]: 45.5% | IFNγ inhibition by ex vivo infliximab treatment, N patients [1, 7]: 5 | IL-1β inhibition by ex vivo infliximab treatment, % patients [1, 7]: 45.5% | IL-1β inhibition by ex vivo infliximab treatment, N patients [1, 7]: 5 | IL-2 inhibition by ex vivo infliximab treatment, % patients [1, 7]: 45.5% | IL-2 inhibition by ex vivo infliximab treatment, N patients [1, 7]: 5 | IL-4 inhibition by ex vivo infliximab treatment, % patients [1, 7]: 63.6% | IL-4 inhibition by ex vivo infliximab treatment, N patients [1, 7]: 7 | IL-5 inhibition by ex vivo infliximab treatment, % patients [1, 7]: 81.8% | IL-5 inhibition by ex vivo infliximab treatment, N patients [1, 7]: 9 | IL-6 inhibition by ex vivo infliximab treatment, % patients [1, 7]: 0.0% | IL-6 inhibition by ex vivo infliximab treatment, N patients [1, 7]: 0 | IL-7 inhibition by ex vivo infliximab treatment, N patients [1, 7]: 8 | IL-8 inhibition by ex vivo infliximab treatment, % patients [1, 7]: 0.0% | IL-8 inhibition by ex vivo infliximab treatment, N patients [1, 7]: 0 | IL-10 inhibition by ex vivo infliximab treatment, % patients [1, 7]: 18.2% | IL-10 inhibition by ex vivo infliximab treatment, N patients [1, 7]: 2 | IL-12p40 inhibition by ex vivo infliximab treatment, % patients [1, 7]: 45.5% | IL-12p40 inhibition by ex vivo infliximab treatment, N patients [1, 7]: 5 | IL-12p70 inhibition by ex vivo infliximab treatment, % patients [1, 7]: 27.3% | IL-12p70 inhibition by ex vivo infliximab treatment, N patients [1, 7]: 3 | IL-13 inhibition by ex vivo infliximab treatment, N patients [1, 7]: 7 | IL-17A inhibition by ex vivo infliximab treatment, % patients [1, 7]: 72.7% | IL-17A inhibition by ex vivo infliximab treatment, N patients [1, 7]: 8 | MCP-1 inhibition by ex vivo infliximab treatment, % patients [1, 7]: 9.1% | MCP-1 inhibition by ex vivo infliximab treatment, N patients [1, 7]: 1 | IL-7 inhibition by ex vivo infliximab treatment, % patients [1, 8]: 88.8% | IL-13 inhibition by ex vivo infliximab treatment, % patients [1, 8]: 70.0% | number of cytokines per patient, besides TNFα, significantly inhibited ex vivo, maximum [1, 9]: 12 | number of cytokines per patient, besides TNFα, significantly inhibited ex vivo, median [1, 9]: 2 | number of cytokines per patient, besides TNFα, significantly inhibited ex vivo, minimum [1, 9]: 0 | Changes in TNFα levels in culture supernatant ([1]; all patients tested, p<0.0001, 0.5 mg/ml, 18 hours): robustly down-regulated | number of cytokines down-regulated in the ex vivo assay ([1]; clinical non-responders to anti-TNFα therapy): 1.29±0.63 | number of cytokines down-regulated in the ex vivo assay ([1]; clinical responders to anti-TNFα therapy): 6.0±1.02 | ex vivo inhibition of IL-17A, IL-7, IL-5 and IL-4/IL-13 ([1]; clinical responders versus non-responders to anti-TNFα therapy): almost exclusively observed in the clinical responders | ex vivo response rate [1, 10]: 45.5% | ex vivo response rate (patients) [1, 10]: 10/23 | ex vivo response rate [1, 11]: 43.5% | ex vivo response rate (patients) [1, 11]: 10/22 | magnitude of infliximab-mediated inhibition of the rest of cytokines (other than TNFα) ([1]; group means, CD and UC patients, 0.5 mg/ml, 18 hours): < 30% | cytokines whose inhibition reached statistical significance ([1]; patients with CD (N=29), 0.5 mg/ml, 18 hours): IL-2 (p<0.001), IL-12p40 (p<0.05) and IL-5 (p<0.05) | cytokines whose inhibition reached statistical significance ([1]; patients with UC (N=16), 0.5 mg/ml, 18 hours): IL-1β (p<0.05) and IL-7 (p<0.05) | clinical response rates during induction ([2]; 10 mg/kg, week 8): 61.5% | clinical response rates, maintenance therapy ([2]; week 53): 19.8% | Mucosal healing rates [3]: 30.1% | patients with undetectable infliximab serum levels ([4]; 483 patients with CD during maintenance therapy): 23% | risk to loose response in the presence of ADA ([4]; metanalysis, 95% CI:2-4.9): 3.2 fold | patients positive for anti-drug antibodies (ADA) ([4]; of the CD patients with undetectable infliximab serum levels): 72% | patients developing anti-drug antibodies (ADA) ([4]; secondary loss of response): 10%
